According to patent US20260132140A1, “IMIDAZOLYL-AMINO-PYRAZINE-CARBONITRILS AS CHK-1 INHIBITORS” (BenevolentAI Bio Limited, priority 2022, published 2026):

Key:
[1] = system: GBM LN18 cells; assay: In vitro cell viability assay (Cell Titre Glo, 72 hours); assay type: cell-based; settings: Homo sapiens, LN-18, read-out: LN18 pIC50 (converted)
Protocol: GBM LN18 cells were incubated with increasing concentrations of selected compounds of the invention for 72 hours prior to the measurement of ATP in metabolically viable cells with the Cell Titre® Glo Luminescent reagent. A 10-point concentration response curve up to a maximum concentration of 10 μM was tested.
The percent (%) effect i.e., inhibition at each concentration of compound was calculated based on, and relative to the amount of inhibition produced in the vehicle control and inhibited control wells contained within each plate.

[2] = biological target: T1, human Chk1 kinase (Homo sapiens, UniProt O14757); assay: biochemical
T1 sequence (O14757 1-476): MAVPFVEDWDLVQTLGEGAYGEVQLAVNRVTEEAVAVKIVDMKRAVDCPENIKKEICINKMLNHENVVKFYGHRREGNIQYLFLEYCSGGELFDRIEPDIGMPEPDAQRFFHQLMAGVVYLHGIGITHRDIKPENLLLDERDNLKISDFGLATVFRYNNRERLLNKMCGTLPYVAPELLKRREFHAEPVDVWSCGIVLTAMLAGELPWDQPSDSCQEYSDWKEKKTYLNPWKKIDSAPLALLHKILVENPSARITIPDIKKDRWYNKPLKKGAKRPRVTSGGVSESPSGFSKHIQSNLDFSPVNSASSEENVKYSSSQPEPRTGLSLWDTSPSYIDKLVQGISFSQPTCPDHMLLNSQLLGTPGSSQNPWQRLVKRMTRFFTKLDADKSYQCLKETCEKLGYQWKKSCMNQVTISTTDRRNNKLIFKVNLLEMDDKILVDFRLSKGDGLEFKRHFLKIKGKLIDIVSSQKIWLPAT

[3] = biological target: human Chk2 kinase (Homo sapiens, UniProt O96017); assay: biochemical
human Chk2 kinase, sequence (O96017 whole entry): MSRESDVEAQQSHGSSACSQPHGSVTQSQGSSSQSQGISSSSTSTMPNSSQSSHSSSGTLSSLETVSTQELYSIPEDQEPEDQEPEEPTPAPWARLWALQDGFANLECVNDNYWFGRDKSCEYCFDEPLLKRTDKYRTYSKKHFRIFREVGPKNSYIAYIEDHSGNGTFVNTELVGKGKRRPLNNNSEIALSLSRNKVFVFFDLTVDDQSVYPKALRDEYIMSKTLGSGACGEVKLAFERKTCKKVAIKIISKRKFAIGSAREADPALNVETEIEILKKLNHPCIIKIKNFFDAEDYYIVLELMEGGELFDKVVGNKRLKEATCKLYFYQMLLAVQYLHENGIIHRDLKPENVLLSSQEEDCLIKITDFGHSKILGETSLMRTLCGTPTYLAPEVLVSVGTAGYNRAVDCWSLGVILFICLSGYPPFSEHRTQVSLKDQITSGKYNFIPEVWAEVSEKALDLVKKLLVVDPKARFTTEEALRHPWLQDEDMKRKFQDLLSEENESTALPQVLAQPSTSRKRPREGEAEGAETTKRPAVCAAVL

C[C@H]1C[C@@H](N(C)C)CN1c1ccc(-n2cnc(Nc3cnc(C#N)cn3)c2)cc1 [Example 75, 5-((1-(4-((2S,4R)-4-(Dimethylamino)-2-methylpyrrolidin-1-yl)phenyl)-1H-imidazol-4-yl)amino)pyrazine-2-carbonitrile]
IC50 [1]: < 1 µM

N#Cc1cnc(Nc2cn(-c3ccc(N4CC(CN)C4)cc3)cn2)cn1 [Example 158, 5-((1-(4-(3-(Aminomethyl)azetidin-1-yl)phenyl)-1H-imidazol-4-yl)amino)pyrazine-2-carbonitrile]
IC50 [2]: 0.01 to 0.0316 µM
IC50 [1]: 1 to 10 µM
IC50 [3]: 10 to 100 µM

CC(C)N[C@@H]1CCN(c2ccc(-n3cnc(Nc4cnc(C#N)cn4)c3)cc2)C1 [Example 96, (R)-5-((1-(4-(3-(Isopropylamino)pyrrolidin-1-yl)phenyl)-1H-imidazol-4-yl)amino)pyrazine-2-carbonitrile]
IC50 [2]: 0.01 to 0.0316 µM
IC50 [1]: < 1 µM
IC50 [3]: 10 to 100 µM

CN1CC2(CCN(c3ccc(-n4cnc(Nc5cnc(C#N)cn5)c4)cc3)C2)C1 [Example 69, 5-((1-(4-(2-Methyl-2,6-diazaspiro[3.4]octan-6-yl)phenyl)-1H-imidazol-4-yl)amino)pyrazine-2-carbonitrile]
IC50 [2]: 0.01 to 0.0316 µM
IC50 [1]: 1 to 10 µM
IC50 [3]: 10 to 100 µM

CN(C)[C@@H]1CCN(c2cnc(-n3cnc(Nc4cnc(C#N)cn4)c3)cn2)C1 [Example 52, (R)-5-((1-(5-(3-(Dimethylamino)pyrrolidin-1-yl)pyrazin-2-yl)-1H-imidazol-4-yl)amino)pyrazine-2-carbonitrile]
IC50 [2]: 0.0316 to 0.1 µM
IC50 [1]: 1 to 10 µM
IC50 [3]: 10 to 100 µM

CN1C[C@@H]2CN(c3ccc(-n4cnc(Nc5cnc(C#N)cn5)c4)cc3)[C@@H]2C1 [Example 67, 5-((1-(4-((1R,5S)-3-Methyl-3,6-diazabicyclo[3.2.0]heptan-6-yl)phenyl)-1H-imidazol-4-yl)amino)pyrazine-2-carbonitrile]
IC50 [2]: 0.0316 to 0.1 µM
IC50 [1]: < 1 µM
IC50 [3]: 10 to 100 µM

N#Cc1cnc(Nc2cn(-c3ccc(N4C[C@@H](F)[C@@H](N)C4)cc3)cn2)cn1 [Example 157, 5-((1-(4-((3S,4R)-3-Amino-4-fluoropyrrolidin-1-yl)phenyl)-1H-imidazol-4-yl)amino)pyrazine-2-carbonitrile]
IC50 [2]: < 0.01 µM
IC50 [1]: 1 to 10 µM
IC50 [3]: 10 to 100 µM

CCN(C)[C@@H]1CCN(c2ccc(-n3cnc(Nc4cnc(C#N)cn4)c3)nc2)C1 [Example 90, (R)-5-((1-(5-(3-(Ethyl(methyl)amino)pyrrolidin-1-yl)pyridin-2-yl)-1H-imidazol-4-yl)amino)pyrazine-2-carbonitrile]
IC50 [2]: 0.01 to 0.0316 µM
IC50 [1]: < 1 µM
IC50 [3]: 1 to 10 µM

C[C@@H]1C[C@@H](N)CN1c1ccc(-n2cnc(Nc3cnc(C#N)cn3)c2)cc1 [Example 165, 5-((1-(4-((2R,4R)-4-Amino-2-methylpyrrolidin-1-yl)phenyl)-1H-imidazol-4-yl)amino)pyrazine-2-carbonitrile]
IC50 [2]: < 0.01 µM
IC50 [1]: < 1 µM
IC50 [3]: 1 to 10 µM

N#Cc1cnc(Nc2cn(-c3ccc(OCCN)cc3)cn2)cn1 [Example 150, 5-((1-(4-(2-Aminoethoxy)phenyl)-1H-imidazol-4-yl)amino)pyrazine-2-carbonitrile]
IC50 [1]: 1 to 10 µM

C[C@@H]1CN(c2ccc(-n3cnc(Nc4cnc(C#N)cn4)c3)cc2)C[C@@H]1N(C)C [Example 76, 5-((1-(4-((3R,4R)-3-(Dimethylamino)-4-methylpyrrolidin-1-yl)phenyl)-1H-imidazol-4-yl)amino)pyrazine-2-carbonitrile]
IC50 [2]: 0.01 to 0.0316 µM
IC50 [1]: < 1 µM
IC50 [3]: 10 to 100 µM

CN1C[C@H]2CN(c3ccc(-n4cnc(Nc5cnc(C#N)cn5)c4)cc3)[C@H]2C1 [Example 68, 5-((1-(4-((1S,5R)-3-Methyl-3,6-diazabicyclo[3.2.0]heptan-6-yl)phenyl)-1H-imidazol-4-yl)amino)pyrazine-2-carbonitrile]
IC50 [2]: 0.0316 to 0.1 µM
IC50 [1]: < 1 µM
IC50 [3]: 10 to 100 µM

CN(C)[C@@H]1CCN(c2ccc(-n3cnc(Nc4cnc(C#N)cn4)c3)c(C(F)(F)F)c2)C1 [Example 71, (R)-5-((1-(4-(3-(Dimethylamino)pyrrolidin-1-yl)-2-(trifluoromethyl)phenyl)-1H-imidazol-4-yl)amino)pyrazine-2-carbonitrile]
IC50 [2]: 0.1 to 0.316 µM
IC50 [1]: < 1 µM
IC50 [3]: > 100 µM

CC1(C)CCN1C1CCN(c2ccc(-n3cnc(Nc4cnc(C#N)cn4)c3)cc2)C1 (single isomer, unassigned) [Example 139, 5-((1-(4-(3-(2,2-Dimethylazetidin-1-yl)pyrrolidin-1-yl)phenyl)-1H-imidazol-4-yl)amino)pyrazine-2-carbonitrile]
IC50 [2]: 0.0316 to 0.1 µM
IC50 [3]: > 100 µM

CCNCc1ccc(-n2cnc(Nc3cnc(C#N)cn3)c2)c(OC)c1 [Example 170, 5-((1-(4-((Ethylamino)methyl)-2-methoxyphenyl)-1H-imidazol-4-yl)amino)pyrazine-2-carbonitrile]
IC50 [2]: 0.01 to 0.0316 µM
IC50 [3]: 10 to 100 µM

COc1cc(N2CC[C@@H](N3CCC3)C2)ccc1-n1cnc(Nc2cnc(C#N)cn2)c1 [Example 103, (R)-5-((1-(4-(3-(Azetidin-1-yl)pyrrolidin-1-yl)-2-methoxyphenyl)-1H-imidazol-4-yl)amino)pyrazine-2-carbonitrile]
IC50 [2]: < 0.01 µM
IC50 [3]: 1 to 10 µM

N#Cc1cnc(Nc2cn(-c3cccc(N4CCC(N)C(F)(F)C4)c3)cn2)cn1 (single isomer, unassigned) [Example 166, 5-((1-(3-(4-Amino-3,3-difluoropiperidin-1-yl)phenyl)-1H-imidazol-4-yl)amino)pyrazine-2-carbonitrile]
IC50 [2]: 0.0316 to 0.1 µM
IC50 [3]: > 100 µM

CN(C)C1CCCN(c2ccc(-n3cnc(Nc4cnc(C#N)cn4)c3)cc2)C1 (single isomer, unassigned) [Example 122, 5-((1-(4-(3-(Dimethylamino)piperidin-1-yl)phenyl)-1H-imidazol-4-yl)amino)pyrazine-2-carbonitrile]
IC50 [2]: 0.01 to 0.0316 µM
IC50 [3]: 10 to 100 µM

CN1CC[C@@H]2CN(c3ccc(-n4cnc(Nc5cnc(C#N)cn5)c4)cc3)C[C@@H]21 [Example 87, 5-((1-(4-((3aR,6aR)-1-Methylhexahydropyrrolo[3,4-b]pyrrol-5(1H)-yl)phenyl)-1H-imidazol-4-yl)amino)pyrazine-2-carbonitrile]
IC50 [2]: 0.01 to 0.0316 µM
IC50 [3]: 10 to 100 µM

N#Cc1cnc(Nc2cn(-c3ccc(N4CCN(C5CC(F)(F)C5)CC4)cc3)cn2)cn1 [Example 181, 5-((1-(4-(4-(3,3-Difluorocyclobutyl)piperazin-1-yl)phenyl)-1H-imidazol-4-yl)amino)pyrazine-2-carbonitrile]
IC50 [2]: 0.0316 to 0.1 µM
IC50 [3]: > 100 µM

COc1cc(CN2CC[C@@H](F)C2)cc(F)c1-n1cnc(Nc2cnc(C#N)cn2)c1 [Example 5, (R)-5-((1-(2-Fluoro-4-((3-fluoropyrrolidin-1-yl)methyl)-6-methoxyphenyl)-1H-imidazol-4-yl)amino)pyrazine-2-carbonitrile]
IC50 [2]: 0.316 to 1 µM
IC50 [3]: > 100 µM

CN1CCC2(CC1)CCN(c1ccc(-n3cnc(Nc4cnc(C#N)cn4)c3)cc1)C2 [Example 60, 5-((1-(4-(8-Methyl-2,8-diazaspiro[4.5]decan-2-yl)phenyl)-1H-imidazol-4-yl)amino)pyrazine-2-carbonitrile]
IC50 [2]: 0.0316 to 0.1 µM
IC50 [3]: 10 to 100 µM
